Measurements from ChEMBL document CHEMBL1130119, “2-Carbomethoxy-3-aryl-8-oxabicyclo[3.2.1]octanes: potent non-nitrogen inhibitors of monoamine transporters” (J Med Chem, 1997).

target: Sodium-dependent serotonin transporter (Homo sapiens, UniProt P31645); experiment: Inhibition of [3H]citalopram binding to the serotonin transporter (5-HT) in monkey caudate-putamen.; assay type: tissue-based, Cercopithecidae; details: target entry is the homologue from another species
Sequence (P31645 whole entry): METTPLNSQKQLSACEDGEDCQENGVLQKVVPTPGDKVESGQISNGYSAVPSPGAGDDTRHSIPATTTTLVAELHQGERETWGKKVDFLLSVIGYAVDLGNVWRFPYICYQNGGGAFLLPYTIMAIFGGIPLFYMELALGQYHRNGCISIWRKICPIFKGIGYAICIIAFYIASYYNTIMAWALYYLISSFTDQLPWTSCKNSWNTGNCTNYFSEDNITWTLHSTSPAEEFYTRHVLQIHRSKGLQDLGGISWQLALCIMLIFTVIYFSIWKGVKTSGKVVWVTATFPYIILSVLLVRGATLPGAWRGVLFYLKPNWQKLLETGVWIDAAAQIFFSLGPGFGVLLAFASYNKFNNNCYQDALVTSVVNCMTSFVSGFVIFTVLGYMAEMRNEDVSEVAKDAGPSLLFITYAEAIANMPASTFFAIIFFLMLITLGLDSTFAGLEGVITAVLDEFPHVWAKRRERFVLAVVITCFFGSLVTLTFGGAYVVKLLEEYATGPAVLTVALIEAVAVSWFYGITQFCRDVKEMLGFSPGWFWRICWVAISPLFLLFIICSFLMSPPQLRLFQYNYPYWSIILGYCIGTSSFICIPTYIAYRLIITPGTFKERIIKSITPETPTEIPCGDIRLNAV

First: COC(=O)C1C(c2ccc(Cl)c(Cl)c2)CC2CCC1N2C (stereo in doubt; form 1)
Second: COC(=O)C1C2CCC(CC1c1ccc(Cl)c(Cl)c1)O2 (stereo in doubt; form 2) [listing 1 of 2 here]
The IC50 of the first is 110-fold lower: 27 nM for the first, 2860 nM for the second.

COC(=O)C1C2CCC(CC1c1ccccc1)O2 (stereo in doubt; 7a (O-905)) [listing 1 of 2 here] and COC(=O)C1C2CCC(CC1c1ccc(F)cc1)O2 (stereo in doubt; 7b (O-899)) [listing 1 of 2 here] cannot be ordered by IC50: 11400 nM for the first, greater than 10000 nM for the second.

Compared with COC(=O)[C@H]1[C@@H](c2ccc(F)cc2)C[C@H]2CC[C@H]1N2C (stereo in doubt; 19b), COC(=O)C1C(c2ccc(I)cc2)CC2CCC1N2C (stereo in doubt; 8d) is 1200-fold lower in IC50: 5060 nM for the first, 4.21 nM for the second.

Compared with COC(=O)C1C2CCC(CC1c1ccc(Cl)cc1)O2 (stereo in doubt; 7c (O-915)) [listing 1 of 2 here], COC(=O)C1C2CCC(CC1c1ccc(Br)cc1)O2 (stereo in doubt; form 2) [listing 1 of 2 here] is 3-fold lower in IC50: 816 nM for the first, 276 nM for the second.

First: COC(=O)C1C2CCC(CC1c1ccc(Cl)c(Cl)c1)O2 (stereo in doubt; form 3) [listing 1 of 2 here]
Second: COC(=O)C1C2CCC(CC1c1ccc(Cl)cc1)O2 (stereo in doubt; 6c (O-916)) [listing 1 of 2 here]
The IC50 of the first is 3.5-fold lower: 31 nM for the first, 107 nM for the second. The first is the more potent here.

First: COC(=O)C1C2CCC(CC1c1ccc(Cl)c(Cl)c1)O2 (stereo in doubt; 6f (O-914)) [listing 1 of 2 here]
Second: COC(=O)C1C2CCC(CC1c1ccc(F)cc1)O2 (stereo in doubt; 6b (O-895)) [listing 1 of 2 here]
The IC50 of the first is 400-fold lower: 6.52 nM for the first, 2580 nM for the second.

Compared with COC(=O)C1C2CCC(CC1c1ccc(Cl)c(Cl)c1)O2 (stereo in doubt; form 1) [listing 1 of 2 here], COC(=O)C1C2CCC(CC1c1ccc(I)cc1)O2 (stereo in doubt) [listing 1 of 2 here] is 4.8-fold lower in IC50: 58 nM for the first, 12 nM for the second. The second is the more potent here.

COC(=O)C1C2CCC(CC1c1ccc(Cl)c(Cl)c1)O2 (stereo in doubt; 7f (O-913)) [listing 1 of 2 here] and COC(=O)C1C2CCC(CC1c1ccc(I)cc1)O2 (stereo in doubt; 7e (O-949)) [listing 1 of 2 here] are within 1.5-fold of each other in IC50: 64.5 nM for the first, 72 nM for the second.

Going from COC(=O)C1C2CCC(CC1c1ccccc1)O2 (stereo in doubt; 6a (O-904)) [listing 1 of 2 here] to COC(=O)C1C2CCC(CC1c1ccc(Br)cc1)O2 (stereo in doubt; form 1) [listing 1 of 2 here], the IC50 falls from greater than 10000 nM to 30 nM.

Going from COC(=O)C1C(c2ccc(I)cc2)CC2CCC1N2C (stereo in doubt; 19d) to COC(=O)C1C2CCC(CC1c1ccc(Cl)c(Cl)c1)O2 (stereo in doubt; form 4) [listing 1 of 2 here], the IC50 falls from 64.9 nM to 4.67 nM (14-fold).

target: Monoamine transporters; serotonin & dopamine (Homo sapiens) (UniProt P31645+Q01959); experiment: Selectivity ratio measured as the IC50 ratio of DAT receptor to that of 5-HT transporter; details: Cercopithecidae
Sequence (P31645 whole entry, looked up): as the sequence (P31645 whole entry) above
Sequence (Q01959 whole entry, looked up): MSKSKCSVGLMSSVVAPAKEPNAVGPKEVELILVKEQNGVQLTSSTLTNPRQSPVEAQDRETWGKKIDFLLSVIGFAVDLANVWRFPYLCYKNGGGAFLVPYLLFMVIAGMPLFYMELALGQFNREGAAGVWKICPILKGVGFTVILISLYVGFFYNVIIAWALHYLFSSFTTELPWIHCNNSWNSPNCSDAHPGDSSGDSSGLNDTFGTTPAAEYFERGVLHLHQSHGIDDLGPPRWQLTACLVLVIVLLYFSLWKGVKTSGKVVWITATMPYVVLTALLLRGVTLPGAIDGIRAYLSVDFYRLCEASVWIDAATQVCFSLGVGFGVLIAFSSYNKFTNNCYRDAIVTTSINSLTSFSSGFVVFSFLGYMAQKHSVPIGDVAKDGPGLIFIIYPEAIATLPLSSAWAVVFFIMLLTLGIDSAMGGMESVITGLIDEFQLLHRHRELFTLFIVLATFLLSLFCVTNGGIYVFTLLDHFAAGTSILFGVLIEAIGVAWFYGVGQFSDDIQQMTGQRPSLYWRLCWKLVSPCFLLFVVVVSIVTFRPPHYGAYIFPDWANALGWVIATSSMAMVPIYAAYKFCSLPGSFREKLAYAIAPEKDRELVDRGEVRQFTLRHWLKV

First: COC(=O)C1C2CCC(CC1c1ccc(Cl)c(Cl)c1)O2 (stereo in doubt; 6f (O-914)) [listing 2 of 2 here]
Second: COC(=O)C1C2CCC(CC1c1ccc(Cl)cc1)O2 (stereo in doubt; 6c (O-916)) [listing 2 of 2 here]
The Selectivity ratio of the first is lower: 2 for the first, 11 for the second.

First: COC(=O)C1C2CCC(CC1c1ccc(Cl)c(Cl)c1)O2 (stereo in doubt; form 1) [listing 2 of 2 here]
Second: COC(=O)C1C2CCC(CC1c1ccc(Cl)cc1)O2 (stereo in doubt; 7c (O-915)) [listing 2 of 2 here]
The Selectivity ratio of the first is lower: 1.2 for the first, 29 for the second.

Going from COC(=O)C1C2CCC(CC1c1ccc(F)cc1)O2 (stereo in doubt; 6b (O-895)) [listing 2 of 2 here] to COC(=O)C1C2CCC(CC1c1ccc(I)cc1)O2 (stereo in doubt) [listing 2 of 2 here], the Selectivity ratio falls from 5 to 1.7.

Compared with COC(=O)C1C2CCC(CC1c1ccccc1)O2 (stereo in doubt; 7a (O-905)) [listing 2 of 2 here], COC(=O)C1C2CCC(CC1c1ccc(Br)cc1)O2 (stereo in doubt; form 2) [listing 2 of 2 here] is higher in Selectivity ratio: 6 for the first, 31 for the second.

Compared with COC(=O)C1C2CCC(CC1c1ccc(Cl)c(Cl)c1)O2 (stereo in doubt; form 3) [listing 2 of 2 here], COC(=O)C1C2CCC(CC1c1ccc(F)cc1)O2 (stereo in doubt; 7b (O-899)) [listing 2 of 2 here] is lower in Selectivity ratio: 13 for the first, 10 for the second.

Compared with COC(=O)C1C2CCC(CC1c1ccc(Cl)c(Cl)c1)O2 (stereo in doubt; 7f (O-913)) [listing 2 of 2 here], COC(=O)C1C2CCC(CC1c1ccc(I)cc1)O2 (stereo in doubt; 7e (O-949)) [listing 2 of 2 here] is lower in Selectivity ratio: 21 for the first, 2 for the second.

First: COC(=O)C1C2CCC(CC1c1ccccc1)O2 (stereo in doubt; 6a (O-904)) [listing 2 of 2 here]
Second: COC(=O)C1C2CCC(CC1c1ccc(Br)cc1)O2 (stereo in doubt; form 1) [listing 2 of 2 here]
The Selectivity ratio of the first is higher: 10 for the first, 1.4 for the second.

With COC(=O)C1C2CCC(CC1c1ccc(Cl)c(Cl)c1)O2 (stereo in doubt; form 4) [listing 2 of 2 here] the Selectivity ratio was 1.4.
For COC(=O)C1C2CCC(CC1c1ccc(Cl)c(Cl)c1)O2 (stereo in doubt; form 2) [listing 2 of 2 here], the Selectivity ratio was 51.
